Reference: US20240269298A1, “PHOSPHONYL DERIVATIVE, AND COMPOSITION AND PHARMACEUTICAL APPLICATION THEREOF” (XIZANG HAISCO PHARMACEUTICAL CO., LTD., priority 2021, published 2024)
Like-named read-outs stand apart in the source and are kept apart here.

Assays:
[1] = Pharmacokinetic test in mice; assay type: in vivo; settings: male, ICR, mouse, po, administration i.g. (10 mg/kg), plasma
Outline: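 Male ICR mice (20-25 g), fasted 12-14 h before dosing and fed 4 h after, received a single intravenous or intragastric dose. Orbital plasma sampled from 0 to 24 h (5 min-24 h points); LC-MS/MS quantitation for PK parameters and bioavailability.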

[2] = biological target: T1, EGFR protein in NCI-H1975 EGFR-L858R-T790M-C797S cells (Homo sapiens, UniProt P00533, C797S/L858R/T790M); test: Degradation activity on EGFR protein in NCI-H1975 EGFR-L858R-T790M-C797S cells, Method I (western blot, 72 h); assay type: cell-based; settings: 72 h incubation, EGFR protein relative to DMSO control
T1 construct: expressed in transfected cells; host or cells: NCI-H1975 EGFR-L858R-T790M-C797S (kept under hygromycin selection)
T1 sequence (P00533 25-1210 T790M/C797S/L858R): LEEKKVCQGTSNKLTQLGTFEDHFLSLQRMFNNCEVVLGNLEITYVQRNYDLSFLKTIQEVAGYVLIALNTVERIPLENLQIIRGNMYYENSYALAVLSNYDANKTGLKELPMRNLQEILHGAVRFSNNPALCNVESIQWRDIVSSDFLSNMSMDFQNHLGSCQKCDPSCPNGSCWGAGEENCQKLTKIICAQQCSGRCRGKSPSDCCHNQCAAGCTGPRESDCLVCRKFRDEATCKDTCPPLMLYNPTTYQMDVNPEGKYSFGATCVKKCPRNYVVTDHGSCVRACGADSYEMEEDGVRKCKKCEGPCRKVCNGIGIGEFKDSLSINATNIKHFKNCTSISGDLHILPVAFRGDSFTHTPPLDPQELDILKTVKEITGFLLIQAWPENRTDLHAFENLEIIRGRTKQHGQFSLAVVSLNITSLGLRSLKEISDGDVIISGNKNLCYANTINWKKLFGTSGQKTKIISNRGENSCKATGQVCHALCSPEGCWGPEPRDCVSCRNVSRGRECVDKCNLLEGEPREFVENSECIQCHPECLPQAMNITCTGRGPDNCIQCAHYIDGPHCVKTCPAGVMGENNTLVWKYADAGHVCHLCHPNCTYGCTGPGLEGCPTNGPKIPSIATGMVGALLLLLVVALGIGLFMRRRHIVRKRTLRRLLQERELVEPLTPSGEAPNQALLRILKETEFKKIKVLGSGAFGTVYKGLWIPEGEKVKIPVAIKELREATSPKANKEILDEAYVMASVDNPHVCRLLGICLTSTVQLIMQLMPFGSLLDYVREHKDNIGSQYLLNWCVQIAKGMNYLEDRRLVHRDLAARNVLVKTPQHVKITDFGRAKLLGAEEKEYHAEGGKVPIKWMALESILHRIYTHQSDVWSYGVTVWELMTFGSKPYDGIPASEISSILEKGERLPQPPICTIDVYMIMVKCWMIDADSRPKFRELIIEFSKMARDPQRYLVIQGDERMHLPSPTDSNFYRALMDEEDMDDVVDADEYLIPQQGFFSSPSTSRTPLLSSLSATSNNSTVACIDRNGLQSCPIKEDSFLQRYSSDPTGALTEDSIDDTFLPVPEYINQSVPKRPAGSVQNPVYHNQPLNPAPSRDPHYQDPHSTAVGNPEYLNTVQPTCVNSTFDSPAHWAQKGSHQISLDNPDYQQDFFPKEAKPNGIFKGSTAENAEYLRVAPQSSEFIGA
Description: Protein sample preparation: NCI-H1975 EGFR-L858R-T790M-C797S cells were cultured in an incubator at 37° C. with 5% CO2, and the culture medium was RPMI1640+10% FBS+100 μg/mL hygromycin. The cells in the logarithmic phase were collected, and the cell suspension was adjusted to an appropriate concentration with a hygromycin-free culture medium, plated on a 6-well plate at a density of 200000 cells/well and a volume of 2 mL, and cultured overnight in an incubator at 37° C. with 5% CO2. The next day, the compounds at different concentrations were added. DMSO control wells were provided, wherein the concentration of DMSO in all wells was 0.1%. The 6-well plate was cultured in an incubator at 37° C. with 5% CO2 for 72 h, and then 30 μL of RIPA lysates (Beyotime, Cat. P0013B) containing protease inhibitors (Beyotime, Cat. P0013B) were added. The mixtures were lysed on ice for 30 min. Centrifugation was carried out at 13000 rpm/min at 4° C. for 20 min to collect protein supernatant samples, and protein quantification was performed by the BCA method. Samples for western blot detection were prepared.
Western blot detection: 20 μg of protein samples were added to each well, subjected to polyacrylamide gel electrophoresis and transferred to a membrane, and then diluted anti-EGFR (CST, Cat. 4267S) and […] (Kangchen, Cat. KC-5G4) antibodies were added and incubated overnight at 4° C. After washing the membrane, diluted goat anti-rabbit (Licor, Cat. 926-32211) and goat anti-mouse (Licor, Cat. 926-68070) antibodies were added and incubated in the dark for 45 min. Scanning and detection at wavelengths of 700 nm and 800 nm were performed with a far-infrared imaging system (Odyssey).
According to formula (3), the expression level of EGFR protein in the cells relative to the DMSO control group was calculated after incubation with different concentrations of compounds. wherein EGFRcompound was the fluorescence value of EGFR protein after incubation with compounds, and EGFRvehicle was the fluorescence value of EGFR protein in the DMSO control group. Using the Origin 9.2 software, the drug concentration DC50 values when the expression level of EGFR protein was 50% relative to the DMSO control group were calculated.

A431 (EGFR-WT) cells = test: Inhibitory activity on proliferation of A431 (EGFR-WT) cells (CTG, 72 h); assay type: cell-based; settings: Homo sapiens, A-431
Outline: (§1)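 Cells plated at 1000/well (NCI-H1975, RPMI1640+10% FBS) or 3000/well (A431, DMEM+10% FBS), dosed next day with compounds (0.1% DMSO final) for 72 h at 37 °C, 5% CO2. Viability by CTG luminescence, normalised to vehicle control; IC50 from nonlinear-regression dose-survival curves.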

[3] = tested on: NCI-H1975 EGFR-L858R-T790M-C797S cells; test: Inhibitory activity on proliferation of NCI-H1975 EGFR-L858R-T790M-C797S cells (CellTiter-Glo, 72 h); assay type: cell-based; settings: Homo sapiens
Description: NCI-H1975 EGFR-L858R-T790M-C797S cells were cultured in an incubator at 37° C. with 5% CO2, and the culture medium was RPMI1640+10% FBS+100 μg/mL hygromycin. The cells in the logarithmic phase were collected, and the cell suspension was adjusted to an appropriate concentration with a hygromycin-free culture medium, and then plated on a 96-well plate at a density of 1500 cells/well and a volume of 90 μL. 10 μL of the compounds at different concentrations were added, and a vehicle control group (cells plus DMSO) was provided, wherein the concentration of DMSO was 0.1%. The cell culture plate was cultured in an incubator at 37° C. with 5% CO2 for 72 hours. After the incubation was completed, according to operation instructions for a CellTiter-Glo kit (Promega, G7572), 50 μL of CTG solution, which was already pre-melted and equilibrated to room temperature, was added to each well, and the mixtures were uniformly mixed for 2 min using a microplate shaker. The plate was placed at room temperature for 10 min, and then […] signal values were measured using a microplate reader (Envision 2104). […] was processed based on formula (2), and using the GraphPad Prism 5.0 software and nonlinear regression model, S-shaped dose-survival curves were plotted, and IC50 values were calculated. wherein Vsample was the readout of the drug-treated group, and Vvehicle control was the readout of the control group.

[4] = tested on: NCI-H1975 (EGFR-L858R-T790M) cells; test: Inhibitory activity on proliferation of NCI-H1975 (EGFR-L858R-T790M) cells (CTG, 72 h); assay type: cell-based; settings: Homo sapiens
Outline: as §1

[5] = read-out: IC50 (value in brackets)

AUC(0-t) [1] [ng·h/mL] | DC50 [2] [nM] | IC50 (A431 (EGFR-WT) cells) [nM] | IC50 ([3]; read-out: IC50 (class symbol)) [nM] | IC50 ([3]; read-out: IC50 (value)) [nM] | IC50 ([4]; read-out: IC50 (class symbol)) [nM] | IC50 [4, 5] [nM] | AUC [1] [ng·h/mL] | half-life [1] [h] | SMILES
 | < 100 | ≥ 10000 | 200 to 500 | 280 | < 100 | 66 | 53200 | 3.47 | COc1cc(N2CCN(CC3CCN(c4ccc5c(c4)C(=O)N(C4CCC(=O)NC4=O)C5=O)C3)CC2)c(-c2cnn(C)c2)cc1Nc1ncc(Cl)c(Nc2ccc(-c3ccccc3)cc2P(C)(C)=O)n1 (stereo not shown) [Compound 68, 5-(3-((4-(4-((5-chloro-4-((3-(dimethylphosphoryl)-[1,1′-biphenyl]-4-yl)amino)pyrimidin-2-yl)amino)-5-methoxy-2-(1-methyl-1H-pyrazol-4-yl)phenyl)piperazin-1-yl)methyl)pyrrolidin-1-yl)-2-(2,6-dioxopiperidin-3-yl)isoindoline-1,3-dione]
2310 | < 100 | ≥ 10000 |  |  | < 100 | 28 |  |  | COc1cc(N2CCC(N3CCC4(CCCN(c5ccc6c(c5)C(=O)N(C5CCC(=O)NC5=O)C6=O)C4)CC3)CC2)c(-c2cnn(C)c2)cc1Nc1ncc(Br)c(Nc2ccc(-c3ccccc3)cc2P(C)(C)=O)n1 (stereo not shown) [Compound 62, 5-(9-(1-(4-((5-bromo-4-((3-(dimethylphosphoryl)-[1,1′-biphenyl]-4-yl)amino)pyrimidin-2-yl)amino)-5-methoxy-2-(1-methyl-1H-pyrazol-4-yl)phenyl)piperidin-4-yl)-2,9-diazaspiro[5.5]undecan-2-yl)-2-(2,6-dioxopiperidin-3-yl)isoindoline-1,3-dione]
 | < 100 | ≥ 10000 | < 200 | 83 | < 100 | 41 |  |  | COc1cc(N2CCC(N3CCN(CC4CCN(c5ccc6c(c5)C(=O)N(C5CCC(=O)NC5=O)C6=O)CC4)CC3)CC2)c(-c2cnn(C)c2)cc1Nc1ncc(Br)c(Nc2ccc(-c3ccccc3)cc2P(C)(C)=O)n1 (stereo not shown) [Trifluoroacetate of compound 23, 5-(4-((4-(1-(4-((5-bromo-4-((3-(dimethylphosphoryl)-[1,1′-biphenyl]-4-yl)amino)pyrimidin-2-yl)amino)-5-methoxy-2-(1-methyl-1H-pyrazol-4-yl)phenyl)piperidin-4-yl)piperazin-1-yl)methyl)piperidin-1-yl)-2-(2,6-dioxopiperidin-3-yl)isoindoline-1,3-dione]

Continued, compound first:

SMILES | AUC(0-t) [1] [ng·h/mL] | DC50 [2] [nM] | IC50 (A431 (EGFR-WT) cells) [nM] | IC50 ([3]; read-out: IC50 (class symbol)) [nM] | IC50 ([3]; read-out: IC50 (value)) [nM] | IC50 ([4]; read-out: IC50 (class symbol)) [nM] | IC50 [4, 5] [nM] | AUC [1] [ng·h/mL] | half-life [1] [h]
COc1cc(N2CCC(CN3CCC4(CC3)CCN(c3ccc5c(c3)C(=O)N(C3CCC(=O)NC3=O)C5=O)CC4)CC2)c(-c2cnn(C)c2)cc1Nc1ncc(Br)c(Nc2ccc(-c3ccccc3)cc2P(C)(C)=O)n1 (stereo not shown) [Compound 37, 5-(9-((1-(4-((5-bromo-4-((3-(dimethylphosphoryl)-[1,1′-biphenyl]-4-yl)amino)pyrimidin-2-yl)amino)-5-methoxy-2-(1-methyl-1H-pyrazol-4-yl)phenyl)piperidin-4-yl)methyl)-3,9-diazaspiro[5.5]undecan-3-yl)-2-(2,6-dioxopiperidin-3-yl)isoindoline-1,3-dione] | 21700 | < 100 | ≥ 10000 | < 200 | 32 | < 100 | 38 |  | 
COc1cc(N2CCC(N3CCN(CC4CCN(c5ccc6c(c5)C(=O)N(C5CCC(=O)NC5=O)C6=O)CC4)CC3)CC2)c(-c2cnn(C)c2)cc1Nc1ncc(Br)c(Nc2ccc(-c3ccccc3F)cc2P(C)(C)=O)n1 (stereo not shown) [Compound 54, 5-(4-((4-(1-(4-((5-bromo-4-((3-(dimethylphosphoryl)-2′-fluoro-[1,1′-biphenyl]-4-yl)amino)pyrimidin-2-yl)amino)-5-methoxy-2-(1-methyl-1H-pyrazol-4-yl)phenyl)piperidin-4-yl)piperazin-1-yl)methyl)piperidin-1-yl)-2-(2,6-dioxopiperidin-3-yl)isoindoline-1,3-dione] | 29800 | < 100 | ≥ 10000 | < 200 | 56 | < 100 | 69 |  | 
COc1cc(N2CCC3(CCN(CC4CCN(c5ccc6c(c5)C(=O)N(C5CCC(=O)NC5=O)C6=O)CC4)CC3)CC2)c(-c2cnn(C)c2)cc1Nc1ncc(Cl)c(Nc2ccc(-c3ccccc3)cc2P(C)(C)=O)n1 (stereo not shown) [Compound 59, 5-(4-((9-(4-((5-chloro-4-((3-(dimethylphosphoryl)-[1,1′-biphenyl]-4-yl)amino)pyrimidin-2-yl)amino)-5-methoxy-2-(1-methyl-1H-pyrazol-4-yl)phenyl)-3,9-diazaspiro[5.5]undecan-3-yl)methyl)piperidin-1-yl)-2-(2,6-dioxopiperidin-3-yl)isoindoline-1,3-dione] | 4460 | < 100 | ≥ 10000 |  |  | < 100 | 92 |  | 
COc1cc(N2CCC(N3CCN(CC4CCN(c5ccc6c(c5)C(=O)N(C5CCC(=O)NC5=O)C6=O)CC4)CC3)CC2)c(C2CC2)cc1Nc1ncc(Br)c(Nc2ccc3nccnc3c2P(C)(C)=O)n1 (stereo not shown) [Compound 2, 5-(4-((4-(1-(4-((5-bromo-4-((5-(dimethylphosphoryl)quinoxalin-6-yl)amino)pyrimidin-2-yl)amino)-2-cyclopropyl-5-methoxyphenyl)piperidin-4-yl)piperazin-1-yl)methyl)piperidin-1-yl)-2-(2,6-dioxopiperidin-3-yl)isoindoline-1,3-dione] |  | < 100 | ≥ 10000 | 200 to 500 | 299 | 100 to 500 | 151 |  | 
COc1cc(N2CCC3(CCN(CC4CCN(c5ccc6c(c5)C(=O)N(C5CCC(=O)NC5=O)C6=O)CC4)CC3)CC2)c(-c2cnn(C)c2)cc1Nc1ncc(Br)c(Nc2ccc(-c3ccccc3)cc2P(C)(C)=O)n1 (stereo not shown) [Compound 57, 5-(4-((9-(4-((5-bromo-4-((3-(dimethylphosphoryl)-[1,1′-biphenyl]-4-yl)amino)pyrimidin-2-yl)amino)-5-methoxy-2-(1-methyl-1H-pyrazol-4-yl)phenyl)-3,9-diazaspiro[5.5]undecan-3-yl)methyl)piperidin-1-yl)-2-(2,6-dioxopiperidin-3-yl)isoindoline-1,3-dione] |  | < 100 | ≥ 10000 | < 200 | 65 | < 100 | 21 |  | 
COc1cc(N2CCC(N3CCC4(CCCN(c5ccc6c(c5)C(=O)N(C5CCC(=O)NC5=O)C6=O)C4)CC3)CC2)c(-c2cnn(C)c2)cc1Nc1ncc(Cl)c(Nc2ccc(-c3ccccc3)cc2P(C)(C)=O)n1 (stereo not shown) [Compound 60, 5-(9-(1-(4-((5-chloro-4-((3-(dimethylphosphoryl)-[1,1′-biphenyl]-4-yl)amino)pyrimidin-2-yl)amino)-5-methoxy-2-(1-methyl-1H-pyrazol-4-yl)phenyl)piperidin-4-yl)-2,9-diazaspiro [5.5]undecan-2-yl)-2-(2,6-dioxopiperidin-3-yl)isoindoline-1,3-dione] | 3200 | < 100 | ≥ 10000 |  |  | < 100 | 34 |  | 
